Holding throughout (type): cell-based, rat
One assay relates to EPK protein. Kind of assay: Effect of ERK inhibitor on induced phosphorylation of EPK protein. The settings on record: inhibitor for 30 minutes before imperatorin and bergapten; FIGS. 11A-11B. How it is done:
Bone cells was cultured in 6-well plate and treated with 10 μM of imperatorin and bergapten for 1, 3, 6, 12, and 24 hrs, respectively. After treatment, the culture medium was replaced with a lysis buffer containing 50 mM HEPES (PH 7.4), 150 mM NaCl, 4 mM EDTA, 10 mM Na4P2O7, 100 mM NaF, 2 mM Na3VO4, 1% (v/v) Triton X-100, 0.25% (w/v) sodium deoxycholate, 50 mM 4-(2-aminoethyl)benzene sulfonylfluoride, 50 μg/ml leupeptin, and 20 μg/ml aprotinin, and then centrifuged at 13000 rpm for 15 minutes to obtain the protein pellets. 30 μg of proteins were dissolved in 5× Laemmli buffer, boiled at 95° C. for 5 minutes, and then subjected to SDS-PAGE gel (8%) electrophoresis. Proteins on the gel were then transferred to a PVDF membrane. The PVDF membrane was blocked in 4% BSA solution for 1 hour at room temperature. The blocked membrane was then incubated in PBST buffer (0.1% Tween-20) containing p-SMAD, p-ERK, or p38 primary antibody. Following incubation with primary antibody, the membrane was washed three times with PBST, and then incubated for 1 hr at room temperature with the secondary antibody, an anti-mouse or anti-goat IgG labeled with horseradish peroxidase. Following incubation with the secondary antibody, the membrane was washed three times with PBST, and detected by an […] chemiluminescence using an ECL blotting substrate according to the manufacturer's instructions. […]

Assay [1] relates to Bone cells. Kind of assay: Effect of p38 and ERK inhibitors on ALP activity in bone cells. To be noted: 10 μM inhibitor with 10 μM imperatorin or bergapten, 48 hrs; FIG. 11C. How it is done: (§1) Rat primary osteoblast was isolated from the parietal bone of gestation day 18 embryos of Sprague-Dawley rats. After being slaughtered, the embryo rats were obtained from the uteruses of the rats, and calvarium was isolated from the embryo rats. Parietal bone was cut from the calvarium and digested by 0.1% collagenase for 20 minutes to release the bone cells from the bone tissue. The digestion step was repeated five times. The collected bone cells were cultured in α-MEM containing 1% penicillin-streptomycin and 10% FBS in a humidified atmosphere of 5 percent carbon dioxide. When cells were attached and confluence, they were sub-cultured, which was called “passage 2 (P2)”. The passage was for analogizing. 2 to 5 passage cells were used for the experiments.
Bone cells were cultured and treated with (1) 10 μM SB203580, (2) 10 μM PD98059, (3) 10 μM imperatori, (4) 10 μM bergapten, (5) 10 μM imperatorin+SB203580, (6) 10 μM bergapten+SB203580, (7) 10 μM imperatorin+PD98059 ? (8) 10 μM bergapten+PD98059 for 48 hrs. After treatment, the bone cells were lysed in 0.2% […] solution and centrifuged at 1500×g for 5 minutes. The supernatant was analyzed by an ALP kit such as described above to obtain the ALP activity. The ALP activity in the control group which was treated with 0.1% DMSO was defined as 100%. […]

The next assay relates to p38. The experiment in a line: Effect of p38 inhibitor on induced phosphorylation of p38. To be noted: inhibitor for 30 minutes before imperatorin and bergapten; FIGS. 11A-11B.
Assay [2] concerns Bone cells. The experiment in a line: ALP activity with imperatorin, bergapten and noggin. To be noted: 1 μg/ml noggin with 10 μM imperatorin or 10 μM bergapten, 48 hrs; FIG. 9C. As to the method: as §1
Bone cells were treated with (1) 10 μM imperatorin, (2) 10 μM bergapten, (3) 10 μM imperatorin+noggin, (4) 10 μM bergapten+noggin, and (5) 1 μg/ml noggin for 48 his, respectively. After treatment, the bone cells were lysed in 0.2% […] solution, and then centrifuged at 1500×g for 5 minutes to obtain a supernatant. The supernatant was analyzed by ALP kit as described above to obtain the ALP activity. The ALP activity in the control group which was treated with 0.1% DMSO was defined as 100%. Referring to FIG. 9C, noggin suppressed the imperatorin or bergapten induced-ALP activity.

From patent US7914821B2, “Pharmaceutical composition for prevention and/or treatment of bone loss” (KO DA Pharmaceuticals Co., Ltd., priority 2008, dated 2011) come the findings set out here.

Regarding `COc1cccc(-c2cc(=O)c3ccccc3o2)c1N` [PD98059], the “imperatorin and bergapten induced-phosphorylation (EPK protein)” value in the assay on EPK protein is reported as “suppressed”. Besides, in the assay with Bone cells [1], the “imperatorin and bergapten induced-ALP activity” value is “suppressed”. For the molecule `C[S+]([O-])c1ccc(-c2nc(-c3ccncc3)c(-c3ccc(F)cc3)[nH]2)cc1` (centres unmarked) [SB203580], the “imperatorin and bergapten induced-phosphorylation (p38)” value in the assay on p38 is recorded as “suppressed”. Moreover, the “imperatorin and bergapten induced-ALP activity” value with Bone cells [1] was “suppressed”.

B1: noggin: noggin, 1 μg/ml, suppressed the imperatorin or bergapten induced-ALP activity (protein, UniProt Q13253 28-232, looked up)
Noggin: QHYLHIRPAPSDNLPLVDLIEHPDPIFDPKEKDLNETLLRSLLGGHYDPGFMATSPPEDRPGGGGGAAGGAEDLAELDQLLRQRPSGAMPSEIKGLEFSEGLAQGKKQRLSKKLRRKLQMWLWSQTFCPVLYAWNDLGSRFWPRYVKVGSCFSKRSCSVPEGMVCKPSKSVHLTVLRWRCQRRGGQRCGWIPIQYPIISECKCSC
With B1, the “imperatorin or bergapten induced-ALP activity” value in the assay with Bone cells [2] is on record as “suppressed”.
